What was measured:
[1] = system: ulcers induced by indomethacin and by stress; details: cited from earlier work
[2] = system: patients with osteoarthritis and/or rheumatoid arthritis; test: 12-week double-blinded, randomized, dose-ranging, placebo-controlled phase 2 trial of cobiprostone with naproxen; type: in vivo, human; details: for Drug-related gastrointestinal adverse event rate / Median number of days in the treatment period / Related adverse event: diarrhea / Related adverse event: gastritis / Related adverse event: nausea / Related overall adverse event rate / Withdrawal rate from the trial due to an adverse event / Retention rate at Week 8 / Retention rate at Week 12: naproxen 500 mg twice a day
Procedure: A total of 124 patients with osteoarthritis and/or rheumatoid arthritis were enrolled in 12-week, double-blinded, randomized, dose-ranging and placebo-controlled phase 2 trial. All patients in the trial received 500 mg of naproxen twice a day. There were four treatment cohorts: one cohort received placebo while the other three cohorts received 18 mcg of cobiprostone either once, twice or three times a day (daily totals of 18, 36 or 54 mcg, respectively).
Retention rate and withdrawal rate were evaluated by the following definitions.
Retention rate: The number of intent-to-treat subjects that remained in the trial at a specified week.
Withdrawal Rate: The number of randomized subjects that discontinued the trial. The reasons for discontinuation were:
b. Discontinued due to ulcer
The withdrawal rate can be expressed/calculated for a single reason such as adverse events, or for any combination of the discontinuation reasons.

CC[C@H](C)CC(F)(F)[C@@]1(O)CC[C@H]2[C@@H](CC(=O)[C@@H]2CCCCCCC(=O)O)O1 [cobiprostone, 7{(2R,4aR,5R,7aR)-2-[(3S)-1,1-difluoro-3-methylpentyl]-2-hydroxy-6-oxooctahydrocyclopenta[b]pyran-5-yl}heptanoic acid]
Formation of ulcers induced by indomethacin ([1]; animal studies, indomethacin-induced ulcers): protected against formation of ulcers
Formation of ulcers induced by stress ([1]; animal studies, stress-induced ulcers): protected against formation of ulcers
Safety in animal studies [1]: acceptable safety
Retention rates at Week 12 compared to naproxen with placebo ([2]; Week 12, 18, 36 and 54 mcg/day, dose-dependent increase): statistically significant
Drug-related gastrointestinal adverse event rate ([2]; cobiprostone 18 mcg/day): 60.0%
Median number of days in the treatment period ([2]; cobiprostone 18 mcg/day): 60.0 days
Related adverse event: diarrhea ([2]; cobiprostone 18 mcg/day): 13.3%
Related adverse event: gastritis ([2]; cobiprostone 18 mcg/day): 13.3%
Related adverse event: nausea ([2]; cobiprostone 18 mcg/day): 10.0%
Related overall adverse event rate ([2]; cobiprostone 18 mcg/day): 60.0%
Withdrawal rate from the trial due to an adverse event ([2]; cobiprostone 18 mcg/day): 13.3%
Retention rate at Week 8 ([2]; cobiprostone 18 mcg/day): 67%
Retention rate at Week 12 ([2]; cobiprostone 18 mcg/day, Week 12): 47%
Drug-related gastrointestinal adverse event rate ([2]; cobiprostone 36 mcg/day): 67.7%
Median number of days in the treatment period ([2]; cobiprostone 36 mcg/day): 82.0 days
Related adverse event: diarrhea ([2]; cobiprostone 36 mcg/day): 32.3%
Related adverse event: gastritis ([2]; cobiprostone 36 mcg/day): 6.5%
Related adverse event: nausea ([2]; cobiprostone 36 mcg/day): 16.1%
Related overall adverse event rate ([2]; cobiprostone 36 mcg/day): 71.0%
Withdrawal rate from the trial due to an adverse event ([2]; cobiprostone 36 mcg/day): 16.1%
Retention rate at Week 8 ([2]; cobiprostone 36 mcg/day): 66%
Retention rate at Week 12 ([2]; cobiprostone 36 mcg/day, Week 12): 52%
Drug-related gastrointestinal adverse event rate ([2]; cobiprostone 54 mcg/day): 67.7%
Median number of days in the treatment period ([2]; cobiprostone 54 mcg/day): 83.0 days
Related adverse event: diarrhea ([2]; cobiprostone 54 mcg/day): 35.5%
Related adverse event: gastritis ([2]; cobiprostone 54 mcg/day): 9.7%
Related adverse event: nausea ([2]; cobiprostone 54 mcg/day): 16.1%
Related overall adverse event rate ([2]; cobiprostone 54 mcg/day): 67.7%
Withdrawal rate from the trial due to an adverse event ([2]; cobiprostone 54 mcg/day): 16.1%
Retention rate at Week 8 ([2]; cobiprostone 54 mcg/day): 90%
Retention rate at Week 12 ([2]; cobiprostone 54 mcg/day, Week 12): 77%
Tolerability in patients receiving NSAID therapy ([2]; overall, 18-54 mcg/day with naproxen 500 mg twice a day): well tolerated

Reference: patent US20110034424A1, “METHOD FOR THE LONG TERM NSAID USE” (SUCAMPO AG, priority 2009, published 2011)
